Structures can show the parent of a compound that is named as a salt.
target: T1, recombinant human baculovirus-expressed GST-tagged FASN (Homo sapiens, UniProt P49327); test: FASN enzyme activity assay, fluorescence-based detection of CoA with CPM; type: biochemical; settings: 5 nM FASN, 150 μM NADPH, 10 μM acetyl-CoA, 25 μM malonyl-CoA, 90 minutes incubation; read-out: IC50 data for Additional Compounds of Formulae I-V(a): Activity
T1 construct: GST
In short: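 Human GST-tagged FASN, baculovirus-expressed (5 nM), in 50 mM HEPES pH 7.5 with 150 μM NADPH, 10 μM acetyl-CoA, 25 μM malonyl-CoA, 0.5% DMSO; malonyl-CoA-started, 90 min. Released CoA detected with CPM (50 μM dilution), 30 min, fluorescence ex 390/em 530. IC50 from variable-slope sigmoidal fit of % inhibition versus log concentration.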

T1 sequence (P49327 whole entry): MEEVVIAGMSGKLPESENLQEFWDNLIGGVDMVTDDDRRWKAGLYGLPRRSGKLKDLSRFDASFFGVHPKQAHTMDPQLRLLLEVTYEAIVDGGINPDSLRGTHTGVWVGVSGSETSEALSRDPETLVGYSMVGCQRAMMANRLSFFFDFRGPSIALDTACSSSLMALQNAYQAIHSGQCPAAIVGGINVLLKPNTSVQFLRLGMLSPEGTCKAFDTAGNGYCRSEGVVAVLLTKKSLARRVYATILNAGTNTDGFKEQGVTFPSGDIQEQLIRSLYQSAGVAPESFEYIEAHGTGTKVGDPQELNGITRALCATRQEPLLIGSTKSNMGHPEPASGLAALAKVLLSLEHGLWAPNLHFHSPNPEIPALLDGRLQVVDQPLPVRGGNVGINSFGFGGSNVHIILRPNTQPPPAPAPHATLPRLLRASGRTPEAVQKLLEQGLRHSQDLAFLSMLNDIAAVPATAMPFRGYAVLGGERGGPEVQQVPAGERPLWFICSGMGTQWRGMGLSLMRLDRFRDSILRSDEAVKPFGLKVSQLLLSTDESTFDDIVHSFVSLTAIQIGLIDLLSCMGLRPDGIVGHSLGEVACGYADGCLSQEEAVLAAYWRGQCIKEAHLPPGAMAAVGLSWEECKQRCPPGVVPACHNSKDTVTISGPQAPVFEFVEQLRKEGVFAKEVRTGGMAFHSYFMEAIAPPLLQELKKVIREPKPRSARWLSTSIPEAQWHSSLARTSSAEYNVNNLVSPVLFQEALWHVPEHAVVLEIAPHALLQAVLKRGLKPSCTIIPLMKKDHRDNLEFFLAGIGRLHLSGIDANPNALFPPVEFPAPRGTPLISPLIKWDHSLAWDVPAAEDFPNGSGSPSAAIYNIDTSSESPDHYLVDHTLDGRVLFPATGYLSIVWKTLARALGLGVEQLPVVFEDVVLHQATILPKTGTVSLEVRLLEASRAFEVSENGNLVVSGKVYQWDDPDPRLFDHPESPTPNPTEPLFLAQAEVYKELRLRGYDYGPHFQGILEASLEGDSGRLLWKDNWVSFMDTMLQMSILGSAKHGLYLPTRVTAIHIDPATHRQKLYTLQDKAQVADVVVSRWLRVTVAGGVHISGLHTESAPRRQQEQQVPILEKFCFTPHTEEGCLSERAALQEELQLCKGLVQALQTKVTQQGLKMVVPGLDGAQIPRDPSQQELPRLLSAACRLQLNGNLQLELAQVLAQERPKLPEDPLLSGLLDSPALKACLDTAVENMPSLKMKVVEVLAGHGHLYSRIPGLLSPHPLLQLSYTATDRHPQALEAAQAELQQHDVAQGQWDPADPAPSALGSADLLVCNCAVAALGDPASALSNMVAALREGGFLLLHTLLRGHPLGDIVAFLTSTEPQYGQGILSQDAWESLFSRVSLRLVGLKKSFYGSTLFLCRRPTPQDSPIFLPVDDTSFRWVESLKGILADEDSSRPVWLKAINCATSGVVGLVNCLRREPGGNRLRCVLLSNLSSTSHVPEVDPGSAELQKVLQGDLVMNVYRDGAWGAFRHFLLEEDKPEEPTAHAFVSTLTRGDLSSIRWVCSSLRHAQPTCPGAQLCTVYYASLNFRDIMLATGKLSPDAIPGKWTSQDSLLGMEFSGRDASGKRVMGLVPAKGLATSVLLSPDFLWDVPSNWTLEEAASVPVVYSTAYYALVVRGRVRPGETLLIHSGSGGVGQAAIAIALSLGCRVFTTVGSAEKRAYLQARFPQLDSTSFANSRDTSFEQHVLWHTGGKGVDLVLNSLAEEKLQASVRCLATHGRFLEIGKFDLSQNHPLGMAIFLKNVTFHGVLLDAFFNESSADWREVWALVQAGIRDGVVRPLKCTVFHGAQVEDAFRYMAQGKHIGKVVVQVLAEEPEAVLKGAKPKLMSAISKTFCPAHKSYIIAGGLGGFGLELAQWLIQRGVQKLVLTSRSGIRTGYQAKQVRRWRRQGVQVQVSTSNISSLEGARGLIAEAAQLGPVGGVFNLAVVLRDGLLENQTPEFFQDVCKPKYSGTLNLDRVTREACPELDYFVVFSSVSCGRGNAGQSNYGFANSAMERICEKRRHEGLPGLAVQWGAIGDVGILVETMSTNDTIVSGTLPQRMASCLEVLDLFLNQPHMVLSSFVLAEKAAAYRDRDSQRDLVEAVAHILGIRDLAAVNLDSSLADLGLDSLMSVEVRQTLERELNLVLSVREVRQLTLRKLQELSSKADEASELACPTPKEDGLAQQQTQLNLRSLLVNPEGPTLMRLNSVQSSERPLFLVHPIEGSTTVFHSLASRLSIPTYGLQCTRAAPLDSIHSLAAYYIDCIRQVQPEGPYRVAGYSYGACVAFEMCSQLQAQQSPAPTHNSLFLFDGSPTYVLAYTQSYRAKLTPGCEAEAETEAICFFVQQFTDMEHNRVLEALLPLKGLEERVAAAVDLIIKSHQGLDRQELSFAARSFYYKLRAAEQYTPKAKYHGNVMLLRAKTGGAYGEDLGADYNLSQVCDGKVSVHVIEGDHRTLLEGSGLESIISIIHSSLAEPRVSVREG

SMILES | IC50
COCCNC(=O)N1CCC(Oc2ccc(-c3ccc4nccn4c3C)cc2)CC1 [Example 597, N-(2-Methoxyethyl)-4-[4-(5-methylimidazo[1,2-a]pyridin-6-yl)phenoxy]-piperidine-1-carboxamide] | 1000 to 10000 nM
Cc1c(-c2ccc(OC3CCN(C(=O)N4CCN(C)CC4)CC3)cc2)ccc2nccn12 [Example 598, [4-[4-(5-Methylimidazo[1,2-a]pyridin-6-yl)phenoxy]-1-piperidyl]-(4-methylpiperazin-1-yl)methanone] | 100 to 999 nM
Cc1c(-c2ccc(OC3CCN(C(=O)COC(C)C)CC3)cc2)ccc2cccnc12 [Example 624, 2-Isopropoxy-1-[4-[4-(8-methyl-7-quinolyl)phenoxy]-1-piperidyl]ethanone, HCl] | 1000 to 10000 nM
CCCNC(=O)N1CCC(Oc2ccc(-c3ccn4ccnc4c3C)cc2)CC1 [Example 631, 4-[4-(8-Methylimidazo[1,2-a]pyridin-7-yl)phenoxy]-N-propyl-piperidine-1-carboxamide, HCl] | 1 to 99 nM
Cc1c(-c2ccc(OC3CCN(C(=O)NCCN4CCCC4)CC3)cc2)ccc2cccnc12 [Example 530, 4-[4-(8-Methyl-7-quinolyl)phenoxy]-N-(2-pyrrolidin-1-ylethyl)piperidine-1-carboxamide HCl] | 1 to 99 nM
CCCONC(=O)N1CCC(Oc2ccc(-c3ccc4nccn4c3C)cc2)CC1 [Example 607, 4-[4-(5-Methylimidazo[1,2-a]pyridin-6-yl)phenoxy]-N-propoxy-piperidine-1-carboxamide] | 1000 to 10000 nM
Cc1c(-c2ccc(OC3CCN(C(=O)NCC4CCC4)CC3)cc2)ccc2cccnc12 [Example 560, N-(Cyclobutylmethyl)-4-[4-(8-methyl-7-quinolyl)phenoxy]piperidine-1-carboxamide] | 100 to 999 nM

same assay, conditions: 5 nM FASN, 150 μM NADPH, 10 μM acetyl-CoA, 25 μM malonyl-CoA, 90 minutes incubation; read-out: IC50 data for Compounds of Formulae I-V/V(a): Activity

SMILES | IC50
CCC(=O)N1CCC(Oc2ccc(-c3ccc4cccnc4c3C)cc2F)CC1 [Example 225, 1-{4-[2-Fluoro-4-(8-methylquinolin-7-yl)-phenoxy]-piperidin-1-yl}-propan-1-one] | 1 to 99 nM
O=C([C@H]1CCCO1)N1CCC(Oc2ccc(-c3ccc4nccn4c3Cl)cc2)CC1 [Example 295, {4-[4-(5-Chloroimidazo[1,2-a]pyridin-6-yl)-phenoxy]-piperidin-1-yl}-(R)-tetrahydrofuran-2-yl-methanone] | 1 to 99 nM
O=C(C1CC(F)(F)CO1)N1CCC(Oc2ccc(-c3cnc4ccccc4c3)cc2)CC1 (stereo not drawn) [Example 163, (4,4-Difluorotetrahydrofuran-2-yl)-[4-(4-quinolin-3-yl-phenoxy)-piperidin-1-yl]-methanone, HCl] | 100 to 999 nM
Cc1ccc2cc(-c3ccc(OC4CCN(C(=O)N5CCCO5)CC4)cc3)cnc2c1 [Example 80, Isoxazolidin-2-yl-{4-[4-(7-methylquinolin-3-yl)-phenoxy]-piperidin-1-yl}-methanone] | 1 to 99 nM
Cc1c(-c2ccc(OC3CCN(C(=O)C4(C(F)(F)F)CC4)CC3)cc2)ccc2cccnc12 [Example 315, {4-[4-(8-Methylquinolin-7-yl)-phenoxy]-piperidin-1-yl}-(1-trifluoro-methylcyclopropyl)-methanone] | 1000 to 10000 nM
COc1ccc2cc(-c3ccc(OC4CCN(C(=O)[C@H]5CCCO5)CC4)cc3)cnc2c1 [Example 262, {4-[4-(7-Methoxyquinolin-3-yl)-phenoxy]-piperidin-1-yl}-(R)-tetrahydro-furan-2-yl-methanone] | 1 to 99 nM
O=C([C@H]1CCCO1)N1CCC(Oc2ccc(-c3ccc4cccnc4c3O)cc2)CC1 [Example 190, {4-[4-(8-Hydroxyquinolin-7-yl)-phenoxy]-piperidin-1-yl}-(R)-tetrahydro-furan-2-yl-methanone, HCl] | 1 to 99 nM
CC(=O)C(=O)N1CCC(Oc2ccc(-c3cnc4ccccc4c3C)cc2)CC1 [Example 72, 1-{4-[4-(4-Methylquinolin-3-yl)-phenoxy]-piperidin-1-yl}-propane-1,2-dione] | 1 to 99 nM
C[C@@H]1C[C@H](C(=O)N2CCC(Oc3ccc(-c4cnc5ccccc5c4)cc3)CC2)O[C@@H]1C [Example 156, ((2R,4R,5R)/(2S,4S,5 S)-4,5-Dimethyl-tetrahydrofuran-2-yl)-[4-(4-quinolin-3-yl-phenoxy)-piperidin-1-yl]-methanone, HCL] | 100 to 999 nM
Cc1cc(-c2ccc(OC3CCN(C(=O)[C@H]4CCCO4)CC3)cc2)cc2ncccc12 [Example 352, (R)-(4-(4-(5-Methylquinolin-7-yl)phenoxy)piperidin-1-yl)(tetrahydrofuran-2-yl)methanone] | 1 to 99 nM
CCC(=O)N1CCC(Oc2ccc(-c3ccc(Oc4ccccc4)nc3)cc2)CC1 [Example 389, 1-{4-[4-(6-Phenoxy-pyridin-3-yl)-phenoxy]-piperidin-1-yl}-propan-1-one] | 1000 to 10000 nM
CCC(=O)N1CCC(Oc2cccc(-c3cnc4ccccc4c3)c2)CC1 [Example 496, 1-[4-(3-Quinolin-3-yl-phenoxy)-piperidin-1-yl]-propan-1-one] | 1000 to 10000 nM
CCC(=O)N1CCC(Oc2ccc(-c3cnc4cc(OC)c(F)cc4c3)cc2)CC1 [Example 444, 1-{4-[4-(6-Fluoro-7-methoxyquinolin-3-yl)-phenoxy]-piperidin-1-yl}-propan-1-one] | 1000 to 10000 nM
CCC(=O)N1CCC(Oc2ccc(-c3ccc4nccn4c3Cl)cc2)CC1 [Example 296, 1-{4-[4-(5-Chloroimidazo[1,2-a]pyridin-6-yl)-phenoxy]-piperidin-1-yl}-propan-1-one] | 100 to 999 nM
CCC(=O)N1CCC(Oc2ccc(-c3ccc4nc(C)c(C)n4c3)cc2)CC1 [Example 290, 1-{4-[4-(2,3-Dimethylimidazo[1,2-a]pyridin-6-yl)-phenoxy]-piperidin-1-yl}-propan-1-one] | 1000 to 10000 nM
CC(C)C(=O)N1CCC(S(=O)(=O)c2ccc(-c3ccc4occc4c3)cc2)CC1 [Example 515, 1-[4-(4-Benzofuran-5-yl-benzenesulfonyl)-piperidin-1-yl]-2-methyl-propan-1-one] | 1000 to 10000 nM

SMILES | IC50
CC(C)C(=O)N1CCC(Oc2ccc(-c3cnc4cccnc4c3)cc2)CC1 [Example 13, 2-Methyl-1-[4-(4-1,5-naphthyridin-3-yl-phenoxy)-piperidin-1-yl]-propan-1-one] | 1000 to 10000 nM
Cc1c(-c2ccc(OC3CCN(C(=O)NC(C)C)CC3)cc2)ccc2cccnc12 [Example 92, N-Isopropyl-4-[4-(8-methyl-7-quinolyl)phenoxy]piperidine-1-carboxamide] | 1000 to 10000 nM
O=C(C1CC1)N1CCC(Oc2ccc(-c3cnc4ccccc4c3)cc2Cl)CC1 [Example 193, [4-(2-Chloro-4-quinolin-3-yl-phenoxy)-piperidin-1-yl]-cyclopropyl-methanone] | 1000 to 10000 nM
O=C(C1CC1)N1CCC(Oc2ccc(-c3ccc4cccnc4c3)cn2)CC1 [Example 137, Cyclopropyl-[4-(5-quinolin-7-yl-pyridin-2-yloxy)-piperidin-1-yl]-methanone, HCl] | 100 to 999 nM
Cc1nccc2cc(-c3ccc(OC4CCN(C(=O)C5CC5)CC4)cc3)ccc12 [Example 481, Cyclopropyl-{4-[4-(1-methylisoquinolin-6-yl)-phenoxy]-piperidin-1-yl}-methanone] | 1 to 99 nM
CCC(=O)N1CCC(Oc2ccc(-c3ccc(-c4ccccc4)nc3)cc2)CC1 [Example 378, 1-{4-[4-(6-Phenyl-pyridin-3-yl)-phenoxy]-piperidin-1-yl}-propan-1-one] | 1000 to 10000 nM
CCC(=O)N1CCC(Oc2ccc(-c3ccc4cncn4c3)cc2)CC1 [Example 299, 1-[4-(4-Imidazo[1,5-a]pyridin-6-yl-phenoxy)-piperidin-1-yl]-propan-1-one] | 1000 to 10000 nM
C[C@H]1CCO[C@H]1C(=O)N1CCC(Oc2ccc(-c3cnc4ccccc4c3)cc2)CC1 (racemic) [Example 154, ((2R,3S)/(2S,3R)-3-Methyl-tetrahydrofuran-2-yl)-[4-(4-quinolin-3-yl-phenoxy)-piperidin-1-yl]-methanone, HCl] | 1 to 99 nM
CCC(=O)N1CCC(Oc2ccc(-c3cnc4ncccc4c3)cc2)CC1 [Example 252, 1-[4-(4-[1,8]Naphthyridin-3-yl-phenoxy)-piperidin-1-yl]-propan-1-one, TFA salt] | 100 to 999 nM
Cc1c(-c2ccc(OC3CCN(C(=O)C(C)F)CC3)cc2)ccc2cccnc12 (stereo not drawn) [Example 359, 2-Fluoro-1-{4-[4-(8-methylquinolin-7-yl)-phenoxy]-piperidin-1-yl}-propan-1-one, HCl] | 1 to 99 nM
O=C(C1CC1)N1CCC(Oc2ccc(-c3cnc4cc(F)ccc4c3)cc2)CC1 [Example 477, Cyclopropyl-{4-[4-(7-fluoroquinolin-3-yl)-phenoxy]-piperidin-1-yl}-methanone] | 1 to 99 nM
O=C(C1CC1)N1CCC(Oc2ccc(-c3cnc4cccc(F)c4c3)cc2)CC1 [Example 30] | 1 to 99 nM
CCC(=O)N1CCC(Oc2ccc(-c3cc(F)cc(OCc4ccccc4)c3)cc2)CC1 [Example 506, 1-[4-(5′-Benzyloxy-3′-fluorobiphenyl-4-yloxy)-piperidin-1-yl]-propan-1-one] | 1000 to 10000 nM
CCC(=O)N1CCC(Oc2ccc(-c3cnc4cccc(OC)c4c3)cc2)CC1 [Example 463, 1-{4-[4-(5-Methoxyquinolin-3-yl)-phenoxy]-piperidin-1-yl}-propan-1-one, HCl] | 1000 to 10000 nM
O=C([C@H]1CCCO1)N1CCC(Oc2ccc(-c3ccc4cccnc4c3Cl)cc2F)CC1 [Example 223, {4-[4-(8-Chloroquinolin-7-yl)-2-fluorophenoxy]-piperidin-1-yl}-(R)-tetrahydrofuran-2-yl-methanone] | 1 to 99 nM
Cc1cnc(C)c2ccc(-c3ccc(OC4CCN(C(=O)C5CC5)CC4)cc3)cc12 [Example 470, Cyclopropyl-[4-[4-(1,4-dimethyl-6-isoquinolyl)phenoxy]-1-piperidyl]methanone, HCl] | 100 to 999 nM

Reference: patent US9902696B2, “1,4-substituted piperidine derivatives” (Cephalon, Inc., priority 2015, dated 2018)
